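Tested at 5 concentrations; 48 h exposure; 96-well plates; endpoints linearly interpolated, else capped at highest concentration. GI50 is the concentration that inhibits growth by half.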 Active and inactive are the calls of the source. Cut-off read from the data, not from the text of the source: active = GI50 up to about 1.1 µM and inactive = higher.
How the values were obtained:
Assay in all cases: DTP human tumour cell line panel, 48 h
SK-MEL-2 = tested on: SK-MEL-2
IGROV-1 = tested on: IGROV-1
U-251 = tested on: U-251
HCT-15 = tested on: HCT-15
SF-268 = tested on: SF-268
786-0 = tested on: 786-0
SN12C = tested on: SN12C
HOP-92 = tested on: HOP-92
PC-3 = tested on: PC-3
SNB-75 = tested on: SNB-75
NCI/ADR-RES = tested on: NCI/ADR-RES
COLO 205 = tested on: COLO 205
DU-145 = tested on: DU-145
KM12 = tested on: KM12
SK-OV-3 = tested on: SK-OV-3
RPMI-8226 = tested on: RPMI-8226
TK-10 = tested on: TK-10
LOX IMVI = tested on: LOX IMVI
SR = tested on: SR

| Compound | GI50 (SK-MEL-2) | GI50 (IGROV-1) | GI50 (U-251) | GI50 (HCT-15) [µM] | GI50 (SF-268) | GI50 (786-0) | GI50 (SN12C) | GI50 (HOP-92) | GI50 (PC-3) | GI50 (SNB-75) | GI50 (NCI/ADR-RES) | GI50 (COLO 205) | GI50 (DU-145) | GI50 (KM12) | GI50 (SK-OV-3) | GI50 (RPMI-8226) | GI50 (TK-10) | GI50 (LOX IMVI) | GI50 (SR) |
| --- | --- | --- | --- | --- | --- | --- | --- | --- | --- | --- | --- | --- | --- | --- | --- | --- | --- | --- | --- |
| O=C(NNS(=O)(=O)c1ccccc1)c1cccnc1 | > 100 µM (inactive) | > 100 µM (inactive) | > 100 µM (inactive) | > 100 | > 100 µM (inactive) | > 100 µM (inactive) | > 100 µM (inactive) | > 100 µM (inactive) | > 100 µM (inactive) | > 100 µM (inactive) | > 100 µM (inactive) | > 100 µM (inactive) | > 100 µM (inactive) | > 100 µM (inactive) | > 100 µM (inactive) | > 100 µM (inactive) | > 100 µM (inactive) | > 100 µM (inactive) |  |
| O=C(O)c1oc(C(=O)O)c(C(=O)O)c1C(=O)O | > 100 µM (inactive) | > 100 µM (inactive) | > 100 µM (inactive) | > 100 | > 100 µM (inactive) | > 100 µM (inactive) | > 100 µM (inactive) | > 100 µM (inactive) | > 100 µM (inactive) |  | > 100 µM (inactive) |  | > 100 µM (inactive) | > 100 µM (inactive) |  | > 100 µM (inactive) | > 100 µM (inactive) | > 100 µM (inactive) | > 100 µM (inactive) |
| COC(=O)[C@@H](NS(=O)(=O)CC12CCC(CC1)C2(C)C)C(C)(C)C | > 100 µM (inactive) | > 100 µM (inactive) | > 100 µM (inactive) | > 100 | > 100 µM (inactive) | > 100 µM (inactive) | > 100 µM (inactive) | > 100 µM (inactive) |  | > 100 µM (inactive) | > 100 µM (inactive) | > 100 µM (inactive) | > 100 µM (inactive) | > 100 µM (inactive) | > 100 µM (inactive) |  | > 100 µM (inactive) | > 100 µM (inactive) | 23.3 µM (inactive) |
| Cn1c(=O)c2c(nc3n2CC(=O)N3CCCCl)n(C)c1=O | > 100 µM (inactive) | > 100 µM (inactive) | > 100 µM (inactive) | > 100 | > 100 µM (inactive) | > 100 µM (inactive) | > 100 µM (inactive) | > 100 µM (inactive) | > 100 µM (inactive) | > 100 µM (inactive) | > 100 µM (inactive) | > 100 µM (inactive) | > 100 µM (inactive) | > 100 µM (inactive) | > 100 µM (inactive) | > 100 µM (inactive) | > 100 µM (inactive) | > 100 µM (inactive) |  |
| Clc1ccc2c(c1)CC1C[N+]3=C(CCCC3)C1=C2 (stereo not given) | > 100 µM (inactive) | > 100 µM (inactive) | 34 µM (inactive) | > 100 | 90.4 µM (inactive) | > 100 µM (inactive) | > 100 µM (inactive) | 63.5 µM (inactive) | 60.5 µM (inactive) | 52 µM (inactive) | > 100 µM (inactive) | 58.1 µM (inactive) | > 100 µM (inactive) | 57.8 µM (inactive) | > 100 µM (inactive) |  | 72.8 µM (inactive) | > 100 µM (inactive) |  |
| CC(C)OP(=O)(CN(C)/C(F)=N\C(F)(F)F)OC(C)C | > 100 µM (inactive) | > 100 µM (inactive) | > 100 µM (inactive) | > 100 | > 100 µM (inactive) | > 100 µM (inactive) | > 100 µM (inactive) | > 100 µM (inactive) | > 100 µM (inactive) | > 100 µM (inactive) | > 100 µM (inactive) | > 100 µM (inactive) | > 100 µM (inactive) | > 100 µM (inactive) | > 100 µM (inactive) |  | > 100 µM (inactive) | > 100 µM (inactive) |  |
| OC1c2ccccc2C(O)C2OC12 (stereo not given) | > 100 µM (inactive) | > 100 µM (inactive) | > 100 µM (inactive) | > 100 | > 100 µM (inactive) | > 100 µM (inactive) | > 100 µM (inactive) | > 100 µM (inactive) | > 100 µM (inactive) |  | > 100 µM (inactive) | > 100 µM (inactive) | > 100 µM (inactive) | > 100 µM (inactive) | > 100 µM (inactive) | > 100 µM (inactive) | > 100 µM (inactive) | > 100 µM (inactive) | > 100 µM (inactive) |
| Nc1ccc(C23CC4CC(C2)CC(c2ccc(N)cc2)(C4)C3)cc1 | 35.9 µM (inactive) | > 100 µM (inactive) | 14.3 µM (inactive) | 14.5 | 45.2 µM (inactive) | 38.5 µM (inactive) | 25.1 µM (inactive) | 41.8 µM (inactive) |  |  | 56.8 µM (inactive) | 2.3 µM (inactive) | 51.2 µM (inactive) | > 100 µM (inactive) |  | 10.7 µM (inactive) | > 100 µM (inactive) | > 100 µM (inactive) | 14.6 µM (inactive) |
| COc1ccc2c(c1)CCCN1Cc3ccccc3CC21 (stereo not given) |  | 49.4 µM (inactive) | 75.2 µM (inactive) | > 100 | > 100 µM (inactive) | 99.1 µM (inactive) | 64.1 µM (inactive) | 30.7 µM (inactive) | 78.9 µM (inactive) | 44.7 µM (inactive) | > 100 µM (inactive) | 40.7 µM (inactive) | > 100 µM (inactive) | 65 µM (inactive) | > 100 µM (inactive) |  | > 100 µM (inactive) | 43.5 µM (inactive) |  |
| O=c1[nH]nc(-c2ccccc2)n1O | > 100 µM (inactive) | > 100 µM (inactive) | > 100 µM (inactive) | > 100 | 91.4 µM (inactive) | > 100 µM (inactive) | > 100 µM (inactive) | > 100 µM (inactive) | > 100 µM (inactive) |  | > 100 µM (inactive) | > 100 µM (inactive) | > 100 µM (inactive) | > 100 µM (inactive) | > 100 µM (inactive) | > 100 µM (inactive) | > 100 µM (inactive) | > 100 µM (inactive) | > 100 µM (inactive) |
| CCOc1cc2c(cc1O)CC[C@@H]1[C@@H]2CC[C@]2(C)C(N)CC[C@@H]12 (stereo not given in full) | 4.32 µM (inactive) | 3.78 µM (inactive) | 2.89 µM (inactive) | 3.4 | 3.57 µM (inactive) | 3.5 µM (inactive) | 4.09 µM (inactive) | 10.6 µM (inactive) | 2.93 µM (inactive) | 2.1 µM (inactive) | 2.69 µM (inactive) | 4.49 µM (inactive) | 2.36 µM (inactive) | 1.58 µM (inactive) | 3.19 µM (inactive) | 3.01 µM (inactive) | 9.2 µM (inactive) | 4.06 µM (inactive) |  |
| C=C1[C@@H](OC(C)=O)[C@H]2[C@@H](OC(C)=O)[C@@](C)(OC(C)=O)C[C@]2(OC(C)=O)C(=O)[C@@H](C)/C=C/C(C)(C)C(=O)C[C@H]1OC(C)=O | > 100 µM (inactive) | > 100 µM (inactive) | > 100 µM (inactive) | > 100 |  | > 100 µM (inactive) | > 100 µM (inactive) | 79.3 µM (inactive) | > 100 µM (inactive) | > 100 µM (inactive) | 88.1 µM (inactive) | 72.3 µM (inactive) | > 100 µM (inactive) | > 100 µM (inactive) | > 100 µM (inactive) | > 100 µM (inactive) | > 100 µM (inactive) | > 100 µM (inactive) |  |
| O=C1[C@@H]2C[C@@H](O)CN2C(=O)c2ccccc2N1CCCO | > 100 µM (inactive) | > 100 µM (inactive) | > 100 µM (inactive) | > 100 | > 100 µM (inactive) | > 100 µM (inactive) | > 100 µM (inactive) | > 100 µM (inactive) | > 100 µM (inactive) | > 100 µM (inactive) | > 100 µM (inactive) |  | > 100 µM (inactive) | > 100 µM (inactive) | > 100 µM (inactive) | > 100 µM (inactive) | > 100 µM (inactive) | > 100 µM (inactive) |  |
| COc1ccc(OC)c2c(Nc3ccc(S(=O)(=O)O)c4cc(S(=O)(=O)O)cc(S(=O)(=O)O)c34)cc(C)nc12 | > 100 µM (inactive) | > 100 µM (inactive) | > 100 µM (inactive) | > 100 | > 100 µM (inactive) | > 100 µM (inactive) | > 100 µM (inactive) |  | > 100 µM (inactive) | > 100 µM (inactive) | > 100 µM (inactive) | > 100 µM (inactive) | > 100 µM (inactive) | > 100 µM (inactive) | > 100 µM (inactive) | > 100 µM (inactive) | > 100 µM (inactive) | > 100 µM (inactive) |  |
| O=S(=O)(O)c1ccc(O)c(/N=N/c2c(O)ccc3ccccc23)c1 | > 100 µM (inactive) | > 100 µM (inactive) | 73.6 µM (inactive) | > 100 | > 100 µM (inactive) | > 100 µM (inactive) | > 100 µM (inactive) | > 100 µM (inactive) | > 100 µM (inactive) | > 100 µM (inactive) | > 100 µM (inactive) | 87.3 µM (inactive) | > 100 µM (inactive) | > 100 µM (inactive) | > 100 µM (inactive) | > 100 µM (inactive) | > 100 µM (inactive) | > 100 µM (inactive) |  |
| O=C(O)CC(Cc1ccccc1Cl)C(=O)O (stereo not given) | > 100 µM (inactive) | > 100 µM (inactive) | > 100 µM (inactive) | > 100 | > 100 µM (inactive) | > 100 µM (inactive) | > 100 µM (inactive) | > 100 µM (inactive) | > 100 µM (inactive) |  | > 100 µM (inactive) | > 100 µM (inactive) | > 100 µM (inactive) | > 100 µM (inactive) | > 100 µM (inactive) | > 100 µM (inactive) | > 100 µM (inactive) | > 100 µM (inactive) |  |
